The results in this text go back to patent US12415794B2 (Edgewise Therapeutics, Inc., priority 2018, dated 2025).

Structures are written as SMILES.

The target of assay [1] is skeletal myofibrils (myosin ATPase). The experiment in a line: Skeletal Myofibril ATPase Assay. It is filed as biochemical. In short, it runs like this:
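Skeletal myofibril ATPase measured by PK-LDH coupled NADH depletion, absorbance 340 nm read every 1.5-2 min over 45 min. Max−min rate normalized to 1% DMSO vehicle as 100%; IC50 from four-parameter logistic fit with bottom ≥0. Cardiac myofibrils used as counter-screen.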

For assay [2], the target named is T1, cardiac myofibrils (myosin ATPase).
T1 construct: frozen myofibril pellets obtained from cardiac tissue; from tissue
Kind of assay: Cardiac Myofibril ATPase Assay (counter screen). The note with it: myofibrils 1.0 mg/mL, KCl omitted. It is filed as biochemical. In short, it runs like this: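 Frozen cardiac myofibrils at 1.0 mg/mL final, KCl omitted, in a PK-LDH coupled ATPase assay; ADP production tracked as NADH loss by absorbance at 340 nm. Inhibition taken as reduced rate relative to vehicle controls, with IC50 derived.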
In general terms: The purpose of a counterscreen is to sort out artefacts and off-target activity.

T1 sequence (P12883 whole entry): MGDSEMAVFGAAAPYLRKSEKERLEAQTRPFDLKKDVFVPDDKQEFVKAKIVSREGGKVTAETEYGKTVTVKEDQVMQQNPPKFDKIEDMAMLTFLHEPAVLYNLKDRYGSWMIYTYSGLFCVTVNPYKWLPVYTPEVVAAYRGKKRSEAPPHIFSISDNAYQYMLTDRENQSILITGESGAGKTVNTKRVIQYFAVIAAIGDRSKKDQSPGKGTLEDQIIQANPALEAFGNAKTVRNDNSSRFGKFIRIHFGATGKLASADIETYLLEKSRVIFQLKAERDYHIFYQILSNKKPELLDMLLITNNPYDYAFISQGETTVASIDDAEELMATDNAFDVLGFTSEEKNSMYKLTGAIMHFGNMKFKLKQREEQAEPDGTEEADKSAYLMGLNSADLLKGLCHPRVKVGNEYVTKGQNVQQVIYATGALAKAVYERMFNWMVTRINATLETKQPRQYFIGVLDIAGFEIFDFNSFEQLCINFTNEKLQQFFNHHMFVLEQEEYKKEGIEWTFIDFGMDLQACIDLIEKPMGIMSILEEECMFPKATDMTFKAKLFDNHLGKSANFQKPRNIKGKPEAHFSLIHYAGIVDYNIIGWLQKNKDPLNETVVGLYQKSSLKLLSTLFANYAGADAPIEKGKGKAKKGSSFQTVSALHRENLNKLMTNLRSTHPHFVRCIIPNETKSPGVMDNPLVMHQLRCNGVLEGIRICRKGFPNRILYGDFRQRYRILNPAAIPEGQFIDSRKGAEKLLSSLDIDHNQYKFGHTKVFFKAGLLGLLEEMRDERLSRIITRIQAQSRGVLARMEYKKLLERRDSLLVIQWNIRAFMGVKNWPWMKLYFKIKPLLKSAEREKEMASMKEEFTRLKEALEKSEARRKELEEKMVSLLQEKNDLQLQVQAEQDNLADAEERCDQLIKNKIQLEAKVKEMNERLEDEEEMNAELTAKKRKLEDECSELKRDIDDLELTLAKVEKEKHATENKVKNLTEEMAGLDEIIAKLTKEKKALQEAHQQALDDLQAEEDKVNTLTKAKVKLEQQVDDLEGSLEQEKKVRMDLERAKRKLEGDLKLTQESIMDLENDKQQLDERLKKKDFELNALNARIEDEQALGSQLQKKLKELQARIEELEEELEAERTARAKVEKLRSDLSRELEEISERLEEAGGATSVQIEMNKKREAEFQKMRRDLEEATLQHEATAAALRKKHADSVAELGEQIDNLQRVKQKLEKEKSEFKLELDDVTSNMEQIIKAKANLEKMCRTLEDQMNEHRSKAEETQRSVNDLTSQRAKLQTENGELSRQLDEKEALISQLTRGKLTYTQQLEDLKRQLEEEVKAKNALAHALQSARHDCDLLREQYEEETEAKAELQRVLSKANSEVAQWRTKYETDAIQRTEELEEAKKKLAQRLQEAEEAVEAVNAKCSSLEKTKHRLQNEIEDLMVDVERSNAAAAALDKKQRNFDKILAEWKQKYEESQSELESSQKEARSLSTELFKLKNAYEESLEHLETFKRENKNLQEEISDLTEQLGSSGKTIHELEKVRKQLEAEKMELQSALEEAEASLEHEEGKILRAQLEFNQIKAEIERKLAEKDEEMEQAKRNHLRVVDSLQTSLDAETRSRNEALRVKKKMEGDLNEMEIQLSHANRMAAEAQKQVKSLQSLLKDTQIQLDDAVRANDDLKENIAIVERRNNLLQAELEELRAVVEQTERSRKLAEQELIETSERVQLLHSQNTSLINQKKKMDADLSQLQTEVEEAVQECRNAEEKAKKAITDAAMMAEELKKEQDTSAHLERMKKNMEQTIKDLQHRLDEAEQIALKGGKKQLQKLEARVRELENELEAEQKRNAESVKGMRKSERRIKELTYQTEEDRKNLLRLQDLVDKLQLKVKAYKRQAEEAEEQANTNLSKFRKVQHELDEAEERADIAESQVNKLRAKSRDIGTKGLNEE
T1 sequence (P08590 whole entry partner): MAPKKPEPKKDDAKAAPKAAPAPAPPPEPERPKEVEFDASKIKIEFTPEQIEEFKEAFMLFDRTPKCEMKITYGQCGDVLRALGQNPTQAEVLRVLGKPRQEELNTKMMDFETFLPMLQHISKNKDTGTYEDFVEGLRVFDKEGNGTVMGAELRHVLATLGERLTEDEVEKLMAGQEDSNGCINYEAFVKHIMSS
T1 sequence (P10916 whole entry partner): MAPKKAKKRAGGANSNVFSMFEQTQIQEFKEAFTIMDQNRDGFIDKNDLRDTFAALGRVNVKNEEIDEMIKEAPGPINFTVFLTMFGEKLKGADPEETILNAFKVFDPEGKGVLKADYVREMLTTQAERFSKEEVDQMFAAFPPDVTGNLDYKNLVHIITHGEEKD

The term IC50 denotes the concentration that inhibits the measured activity by half. As to `O=C(Cn1nc(-c2ccc(OC(F)F)nc2)ccc1=O)N[C@H]1CC12CC2` [Compound I-17, (S)-2-(3-(6-(difluoromethoxy)pyridin-3-yl)-6-oxopyridazin-1(6H)-yl)-N-(spiro[2.2]pentan-1-yl)acetamide], the IC50 in assay [1] (Table 4A) is 10 to 100 µM; in assay [2] (Table 5A) it was greater than 100 µM.

On to `CCNC(=O)Cn1nc(-c2ccc(OC(F)(F)F)cc2)ccc1=O` [II-5, N-ethyl-2-(6-oxo-3-(4-(trifluoromethoxy)phenyl)pyridazin-1(6H)-yl)acetamide], for which the IC50 is less than 10 µM in assay [1] (Table 4B) and greater than 100 µM in assay [2] (Table 5B).

Regarding `CCNC(=O)Cn1nc(-c2ccc(NC34CC(C)(C3)C4)nc2)ccc1=O` [Compound I-60, N-ethyl-2-(3-(6-((3-methylbicyclo[1.1.1]pentan-1-yl)amino)pyridin-3-yl)-6-oxopyridazin-1(6H)-yl)acetamide], the half-maximal inhibitory concentration (IC50) is less than 10 µM in assay [1] (Table 4A) and greater than 100 µM in assay [2] (Table 5A).

In the case of `C[C@H](NC(=O)Cn1nc(-c2ccc(OC(F)F)nc2)ccc1=O)c1ccnn1C` [Compound I-29, (S)-2-(3-(6-(difluoromethoxy)pyridin-3-yl)-6-oxopyridazin-1(6H)-yl)-N-(1-(1-methyl-1H-pyrazol-5-yl)ethyl)acetamide], the IC50 in assay [1] (Table 4A) and in assay [2] (Table 5A) was greater than 100 µM in each case.

Consider `CCNC(=O)Cn1nc(-c2ccc(OC3COC3)nc2)ccc1=O` [Compound I-25, N-ethyl-2-(3-(6-(oxetan-3-yloxy)pyridin-3-yl)-6-oxopyridazin-1(6H)-yl)acetamide], for which the IC50 in assay [1] (Table 4A) and in assay [2] (Table 5A) was greater than 100 µM in each case.

Take `CC(C)NC(=O)Cn1nc(-c2ccc(Br)cc2)ccc1=O` [IIIc-40, 2-(3-(4-bromophenyl)-6-oxopyridazin-1(6H)-yl)-N-isopropylacetamide]: the half-maximal inhibitory concentration (IC50) in assay [1] (Table 4C) was 10 to 100 µM; in assay [2] (Table 5C) it was greater than 100 µM.

Turning to `CCCOc1ncc(-c2ccc(=O)n(CC(=O)NC3CCC3)n2)cn1` [Compound I-73, N-cyclobutyl-2-(6-oxo-3-(2-propoxypyrimidin-5-yl)pyridazin-1(6H)-yl)acetamide], the IC50 in assay [1] (Table 4A) is less than 10 µM; in assay [2] (Table 5A), greater than 100 µM.

On to `COc1ccc(-c2ccc(=O)n(CC(=O)NC3CCCCC3)n2)cc1` [IIIb-41, N-cyclohexyl-2-(3-(4-methoxyphenyl)-6-oxopyridazin-1(6H)-yl)acetamide], for which the IC50 in assay [1] (Table 4C) and in assay [2] (Table 5C) was greater than 100 µM each time.

Take `CCNC(=O)Cn1nc(-c2ccc(N3CC4(COC4)C3)nc2)ccc1=O` [Compound I-31, 2-(3-(6-(2-oxa-6-azaspiro[3.3]heptan-6-yl)pyridin-3-yl)-6-oxopyridazin-1(6H)-yl)-N-ethylacetamide]: the half-inhibitory concentration (IC50) in assay [1] (Table 4A) and in assay [2] (Table 5A) was greater than 100 µM in each case.

As for `COc1ccccc1NC(=O)Cn1nc(-c2ccc(Cl)cc2)ccc1=O` [IIIc-23, 2-(3-(4-chlorophenyl)-6-oxopyridazin-1(6H)-yl)-N-(2-methoxyphenyl)acetamide], the IC50 is less than 10 µM in assay [1] (Table 4C) and greater than 100 µM in assay [2] (Table 5C).

As to `CC(C)CNC(=O)Cn1nc(-c2ccc(OC(F)F)cc2)ccc1=O` [II-13, 2-(3-(4-(difluoromethoxy)phenyl)-6-oxopyridazin-1(6H)-yl)-N-isobutylacetamide], the IC50 in assay [1] (Table 4B) is 10 to 100 µM; in assay [2] (Table 5B), greater than 100 µM.

Consider `COc1ccc(-c2ccc(=O)n(CC(=O)Nc3cccc4[nH]ccc34)n2)cc1` [IIIb-3, N-(1H-indol-4-yl)-2-(3-(4-methoxyphenyl)-6-oxopyridazin-1(6H)-yl)acetamide], for which the IC50 in assay [1] (Table 4C) was less than 10 µM; in assay [2] (Table 5C), greater than 100 µM.

Regarding `COc1ccc(-c2ccc(=O)n(CC(=O)Nc3ccc(Cl)cc3Cl)n2)cc1` [IIIb-11, N-(2,4-dichlorophenyl)-2-(3-(4-methoxyphenyl)-6-oxopyridazin-1(6H)-yl)acetamide], the IC50 in assay [1] (Table 4C) was less than 10 µM; in assay [2] (Table 5C), greater than 100 µM.

`CC(C)OCCCNC(=O)Cn1nc(-c2ccc(Cl)cc2)ccc1=O` [IIIc-33, 2-(3-(4-chlorophenyl)-6-oxopyridazin-1(6H)-yl)-N-(3-isopropoxypropyl)acetamide]: the IC50 in assay [1] (Table 4C) was 10 to 100 µM; in assay [2] (Table 5C) it was greater than 100 µM.

On to `COc1ccc(-c2ccc(=O)n(CC(=O)NCc3ccc(Cl)cc3)n2)cc1` [IIIb-31, N-(4-chlorobenzyl)-2-(3-(4-methoxyphenyl)-6-oxopyridazin-1(6H)-yl)acetamide], for which the IC50 in assay [1] (Table 4C) was 10 to 100 µM; in assay [2] (Table 5C) it was greater than 100 µM.

Consider `CCCCNC(=O)Cn1nc(-c2ccc(OC(F)F)cc2)ccc1=O` [II-17, N-butyl-2-(3-(4-(difluoromethoxy)phenyl)-6-oxopyridazin-1(6H)-yl)acetamide], for which the results for the IC50 in assay [1] (Table 4B) and in assay [2] (Table 5B) were 10 to 100 µM and greater than 100 µM, respectively.

Take `COc1ccc(-c2ccc(=O)n(CC(=O)NCc3ccccc3Cl)n2)cc1` [IIIb-1, N-(2-chlorobenzyl)-2-(3-(4-methoxyphenyl)-6-oxopyridazin-1(6H)-yl)acetamide]: the IC50 in assay [1] (Table 4C) was less than 10 µM; in assay [2] (Table 5C), greater than 100 µM.

For `Cc1ccc(-c2ccc(=O)n(CC(=O)NC3CCCCCC3)n2)cc1` [IIIc-4, N-cycloheptyl-2-(6-oxo-3-(p-tolyl)pyridazin-1(6H)-yl)acetamide], the IC50 in assay [1] (Table 4C) is 10 to 100 µM; in assay [2] (Table 5C), greater than 100 µM.

As to `CC1(NC(=O)Cn2nc(-c3ccc(OC(F)F)nc3)ccc2=O)CCC1` [Compound I-15, 2-(3-(6-(difluoromethoxy)pyridin-3-yl)-6-oxopyridazin-1(6H)-yl)-N-(1-methylcyclobutyl)acetamide], the IC50 was 10 to 100 µM in assay [1] (Table 4A) and greater than 100 µM in assay [2] (Table 5A).

As to `CCNC(=O)Cn1nc(-c2ccc(N(C)C34CC(C3)C4)nc2)ccc1=O` [Compound I-64, 2-(3-(6-(bicyclo[1.1.1]pentan-1-yl(methyl)amino)pyridin-3-yl)-6-oxopyridazin-1(6H)-yl)-N-ethylacetamide], the IC50 is less than 10 µM in assay [1] (Table 4A) and 10 to 100 µM in assay [2] (Table 5A).

Regarding `COc1ccc(-c2ccc(=O)n(CC(=O)NC(C)C)n2)cn1` [Compound I-16, N-isopropyl-2-(3-(6-methoxypyridin-3-yl)-6-oxopyridazin-1(6H)-yl)acetamide], the IC50 in assay [1] (Table 4A) is 10 to 100 µM; in assay [2] (Table 5A) it was greater than 100 µM.

As to `CCNC(=O)Cn1nc(-c2ccc(OC(F)F)cc2)c(C)cc1=O` [II-19, 2-(3-(4-(difluoromethoxy)phenyl)-4-methyl-6-oxopyridazin-1(6H)-yl)-N-ethylacetamide], the IC50 in assay [1] (Table 4B) is 10 to 100 µM; in assay [2] (Table 5B), greater than 100 µM.

On to `COc1ccc(-c2ccc(=O)n(CC(=O)NCc3ccccc3C(F)(F)F)n2)cc1` [IIIa-11, 2-(3-(4-methoxyphenyl)-6-oxopyridazin-1(6H)-yl)-N-(2-(trifluoromethyl)benzyl)acetamide], for which the IC50 in assay [1] (Table 4C) was less than 10 µM; in assay [2] (Table 5C), greater than 100 µM.

With `COc1ccc(-c2ccc(=O)n(CC(=O)Nc3cc(OC)ccc3OC)n2)cc1` [IIIb-25, N-(2,5-dimethoxyphenyl)-2-(3-(4-methoxyphenyl)-6-oxopyridazin-1(6H)-yl)acetamide], the IC50 in assay [1] (Table 4C) is 10 to 100 µM; in assay [2] (Table 5C) it was greater than 100 µM.

As to `O=C(Cn1nc(-c2ccc(OCC(F)(F)F)cc2)ccc1=O)N1CC(c2ccccc2)C1` [II-22, 2-(2-oxo-2-(3-phenylazetidin-1-yl)ethyl)-6-(4-(2,2,2-trifluoroethoxy)phenyl)pyridazin-3(2H)-one], the IC50 was less than 10 µM in assay [1] (Table 4B) and greater than 100 µM in assay [2] (Table 5B).
